Structures are written as SMILES. Where a name gives a salt, the structure may show the parent alone.

The target of test [1] is T1, Dopamine, D2S (human recombinant) (Homo sapiens, UniProt P14416).
T1 construct: expressed in transfected cells; host or cells: CHO cells
Description: Dopamine, D2S (human recombinant) radioligand binding assay ([3H]Spiperone). The settings on record: human recombinant in CHO cells. How it is done: The reactions were carried out in 50 mM TRIS-HCl (pH 7.4) containing 120 mM NaCl, 5 mM KCl, 5 mM MgCl2, 1 mM EDTA for 60 minutes at 25 C. The reaction was terminated by rapid vacuum filtration onto glass fiber filters. Radioactivity trapped onto the filters was determined and compared to control values in order to ascertain any interactions of test compounds with the cloned dopamine-D2 short binding site (Literature Reference: Jarvis, K. R. et al. Journal of Receptor Research 1993, 13(1-4), 573-590; Gundlach, A. L. et al. Life Sciences 1984, 35, 1981-1988.)
(§1) The radioligand binding assays for dopamine-D2S and serotonin-5HT1A were carried out at six different concentrations and the test concentrations were 1 nM, 5 nM, 10 nm 50 nM, 100 nM and 500 nM. The radioligand binding assays for serotonin-5HT2A were carried out at seven different concentrations and the test concentrations were 5 nM, 10 nM, 50 nM, 100 nM, 500 nM, 1 uM, and 300 uM.

For test [2], the target named is T2, Serotonin, 5HT1A (human recombinant) (Homo sapiens, UniProt P08908).
T2 construct: expressed in transfected cells; host or cells: HEK-293 cells
T2 sequence (P08908 1-422): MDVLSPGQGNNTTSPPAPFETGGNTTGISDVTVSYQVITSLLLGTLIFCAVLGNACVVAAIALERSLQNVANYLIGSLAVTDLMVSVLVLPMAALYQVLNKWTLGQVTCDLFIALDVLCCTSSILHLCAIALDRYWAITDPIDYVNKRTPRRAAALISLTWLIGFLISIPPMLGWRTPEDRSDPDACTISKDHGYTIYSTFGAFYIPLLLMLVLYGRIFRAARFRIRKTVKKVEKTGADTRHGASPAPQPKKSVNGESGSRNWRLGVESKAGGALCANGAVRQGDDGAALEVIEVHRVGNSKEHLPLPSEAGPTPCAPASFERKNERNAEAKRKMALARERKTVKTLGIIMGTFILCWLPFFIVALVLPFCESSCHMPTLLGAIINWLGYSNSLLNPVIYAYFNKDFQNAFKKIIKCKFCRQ
The experiment in a line: Serotonin, 5HT1A (human recombinant) radioligand binding assay ([3H]-8-OH-DPAT). The settings on record: human recombinant in HEK-293 cells. Here is the method:
The reactions were carried out in 50 mM TRIS-HCl (pH 7.4) containing 10 mM MgSO4, 0.5 mM EDTA and 0.1% Ascorbic acid at room temperature for 1 hour. The reaction was terminated by rapid vacuum filtration onto glass fiber filters. Radioactivity trapped onto the filters was determined and compared to control values in order to ascertain any interactions of test compounds with the cloned serotonin-5HT1A binding site (Literature Reference: Hoyer, D. et al. Eur. Journal Pharmacol. 1985, 118, 13-23; Schoeffter, P. and Hoyer, D. Naunyn-Schmiedeberg's Arch. Pharmac. 1989, 340, 135-138)
as §1

A further test addresses Serotonin, 5HT2A (human) (Homo sapiens, UniProt P28223). The experiment in a line: Serotonin, 5HT2A (human) radioligand binding assay ([3H]-Ketanserin). The settings on record: human cortex. How it is done: The reactions were carried out in 50 mM TRIS-HCl (pH 7.6) at room temperature for 90 minutes. The reaction was terminated by rapid vacuum filtration onto glass fiber filters. Radioactivity trapped onto the filters was determined and compared to control values in order to ascertain any interactions of test compounds with the serotonin-5HT2A binding site (Literature Reference: Leysen, J. E. et al. Mol. Pharmacol. 1982, 21, 301-314; Martin, G. R. and Humphrey, P. P. A. Neuropharmacol. 1994, 33(3/4), 261-273.)
as §1

Chain of Serotonin, 5HT2A (human) (P28223 whole entry): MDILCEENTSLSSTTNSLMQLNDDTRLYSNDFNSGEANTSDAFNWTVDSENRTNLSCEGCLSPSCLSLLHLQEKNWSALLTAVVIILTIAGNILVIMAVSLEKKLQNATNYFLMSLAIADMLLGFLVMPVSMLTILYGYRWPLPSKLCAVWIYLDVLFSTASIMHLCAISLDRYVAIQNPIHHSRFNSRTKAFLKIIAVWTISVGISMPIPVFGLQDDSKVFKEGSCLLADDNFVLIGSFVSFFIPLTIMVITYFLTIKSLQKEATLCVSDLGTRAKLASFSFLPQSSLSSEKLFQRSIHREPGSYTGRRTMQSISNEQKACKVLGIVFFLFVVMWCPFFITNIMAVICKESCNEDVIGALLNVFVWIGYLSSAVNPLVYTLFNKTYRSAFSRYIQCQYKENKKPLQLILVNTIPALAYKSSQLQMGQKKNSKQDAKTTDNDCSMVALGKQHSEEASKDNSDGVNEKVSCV
T1 sequence (P14416 1-414 isoform P14416-2): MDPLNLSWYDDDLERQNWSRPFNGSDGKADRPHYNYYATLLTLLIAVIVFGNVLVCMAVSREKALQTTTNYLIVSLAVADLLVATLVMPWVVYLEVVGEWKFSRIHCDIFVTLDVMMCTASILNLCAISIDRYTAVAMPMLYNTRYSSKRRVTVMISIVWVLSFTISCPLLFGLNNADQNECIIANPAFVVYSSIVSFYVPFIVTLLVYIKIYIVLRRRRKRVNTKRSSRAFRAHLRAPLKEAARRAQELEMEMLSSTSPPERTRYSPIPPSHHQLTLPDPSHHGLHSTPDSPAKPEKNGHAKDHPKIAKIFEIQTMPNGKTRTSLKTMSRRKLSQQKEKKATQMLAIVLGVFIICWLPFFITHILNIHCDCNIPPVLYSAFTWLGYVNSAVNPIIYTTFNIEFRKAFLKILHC

The IC50 is the point on the concentration scale where inhibition reaches its midpoint. Broadly, the Ki is the dissociation constant of the complex between target and ligand, obtained from inhibition or displacement. In the case of `CCOC(=O)CCCOc1ccccc1N1CCN(CCCCOc2ccc3c(c2)NC(=O)CC3)CC1` [Compound 9a, Ethyl 4-(2-(4-(4-(2-oxo-1,2,3,4-tetrahydroquinolin-7-yloxy)butyl)piperazin-1-yl)phenoxy)butanoat hydrochloride], the concentration for half-maximal inhibition (IC50) in test [1] was 5.83 nM; in test [2], 6.61 nM; on Serotonin, 5HT2A (human), 456 nM. Also, the Ki in test [1] was found to be 1.69 nM; in test [2], 3.93 nM; on Serotonin, 5HT2A (human), 239 nM.

Regarding `O=C1CCc2ccc(C(=O)OCCCN3CCN(c4cccc(Cl)c4Cl)CC3)cc2N1` [Compound 24b, 3-(4-(2,3-Dichlorophenyl)piperazin-1-yl)propyl 2-oxo-1,2,3,4-tetrahydroquinoline-7-carboxylate hydrochloride], the IC50 amounted to 72.9 nM in test [1]; 28 nM in test [2]; 253 nM at Serotonin, 5HT2A (human). For the same compound, the Ki came to 17 nM in test [1]; 16 nM in test [2]; 147 nM at Serotonin, 5HT2A (human).

`O=C1CCc2ccc(COC(=O)CCCN3CCN(c4cccc(Cl)c4Cl)CC3)cc2N1` [Compound 39d, (2-Oxo-1,2,3,4-tetrahydroquinolin-7-yl)methyl 4-(4-(2,3-dichlorophenyl)piperazin-1-yl)butanoate]: the IC50 in test [1] stood at 54.7 nM; in test [2] it was 85 nM; on Serotonin, 5HT2A (human), 313 nM. Moreover, the Ki came to 12.8 nM in test [1]; 48.5 nM in test [2]; 171 nM at Serotonin, 5HT2A (human).

The record behind these values is patent US8247420B2, “Compositions, synthesis, and methods of using quinolinone based atypical antipsychotic agents” (Reviva Pharmaceuticals, Inc., priority 2007, dated 2012).
